Where a name gives a salt, the structure may show the parent alone. Starred links: 1 amine or outer side, 2 acyl side, 3 side chain; linkers in the order of their positions; H or OH if unused. Positions of bridges follow the written chain, without caps; N, C: chain ends. Non-standard residues stand in square brackets, D forms with d. Residues, ends and D or L forms follow the SMILES beside them. ξ: configuration not given here. *: point of attachment. X1 = N=C1NCCC([C@H](N[*:1])C(=O)[*:2])N1; ΔAla(Z-3-ureido) = NC(=O)N/C=C(\N)C(=O)O; ξβ3hOrn = NCCCC(N)CC(=O)*; Dap = NC[C@H](N)C(=O)O
What was measured:
[1] = target: T1, Solute carrier organic anion transporter family member 1B3 (Homo sapiens, UniProt Q9NPD5); conditions: chinese hamster, cho, 10 µM
T1 sequence (Q9NPD5 whole entry): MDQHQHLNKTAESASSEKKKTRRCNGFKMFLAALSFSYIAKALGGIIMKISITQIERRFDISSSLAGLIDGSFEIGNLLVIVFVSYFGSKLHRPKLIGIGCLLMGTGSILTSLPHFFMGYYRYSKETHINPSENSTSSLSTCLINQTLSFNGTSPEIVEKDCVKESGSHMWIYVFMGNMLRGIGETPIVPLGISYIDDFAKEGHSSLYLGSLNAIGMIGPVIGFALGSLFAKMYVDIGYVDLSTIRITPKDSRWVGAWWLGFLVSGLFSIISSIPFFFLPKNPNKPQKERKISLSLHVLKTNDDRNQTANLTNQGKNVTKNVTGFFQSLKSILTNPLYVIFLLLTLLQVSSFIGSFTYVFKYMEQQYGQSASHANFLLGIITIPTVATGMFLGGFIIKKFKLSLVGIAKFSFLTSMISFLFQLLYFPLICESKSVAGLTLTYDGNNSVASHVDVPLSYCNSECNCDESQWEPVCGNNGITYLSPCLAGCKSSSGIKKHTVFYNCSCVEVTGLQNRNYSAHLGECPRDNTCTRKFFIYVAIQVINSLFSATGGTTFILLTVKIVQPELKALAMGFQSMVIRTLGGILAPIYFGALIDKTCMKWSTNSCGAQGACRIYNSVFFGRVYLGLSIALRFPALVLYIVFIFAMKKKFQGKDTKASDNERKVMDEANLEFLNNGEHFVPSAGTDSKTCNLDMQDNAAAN

[2] = target: T2, Solute carrier organic anion transporter family member 1B1 (Homo sapiens, UniProt Q9Y6L6); conditions: chinese hamster, cho, 10 µM
T2 sequence (Q9Y6L6 whole entry): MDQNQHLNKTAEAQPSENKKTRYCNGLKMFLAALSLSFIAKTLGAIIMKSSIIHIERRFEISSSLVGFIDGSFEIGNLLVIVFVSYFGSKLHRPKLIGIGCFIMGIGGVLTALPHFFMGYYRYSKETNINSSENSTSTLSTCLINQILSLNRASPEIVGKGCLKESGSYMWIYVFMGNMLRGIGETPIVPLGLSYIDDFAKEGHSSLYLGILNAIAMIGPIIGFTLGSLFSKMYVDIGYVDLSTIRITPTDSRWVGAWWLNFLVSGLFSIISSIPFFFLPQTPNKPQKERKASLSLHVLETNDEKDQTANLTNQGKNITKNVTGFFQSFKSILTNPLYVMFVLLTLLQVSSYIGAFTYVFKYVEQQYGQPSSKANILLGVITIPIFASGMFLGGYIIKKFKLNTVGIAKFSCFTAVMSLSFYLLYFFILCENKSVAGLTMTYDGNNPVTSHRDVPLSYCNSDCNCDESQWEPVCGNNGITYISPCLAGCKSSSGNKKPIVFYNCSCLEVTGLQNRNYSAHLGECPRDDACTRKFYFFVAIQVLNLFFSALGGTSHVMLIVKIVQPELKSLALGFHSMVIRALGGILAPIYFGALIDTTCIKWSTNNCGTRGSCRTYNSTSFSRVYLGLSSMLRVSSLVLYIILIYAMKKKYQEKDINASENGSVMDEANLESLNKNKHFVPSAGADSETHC

Row | SMILES | residual activity [1] | residual activity [2]
1 | O=C(/C=C/C(=O)Oc1ccccc1C(=O)O)Oc1ccccc1C(=O)O [BISSALICYL FUMARATE] | 99.92% | 104.8%
2 | COc1cc2c(cc1O)C[C@H]1c3c(cc(O)c(OC)c3-2)CCN1C [BOLDINE] | 100.1% | 47.95%
3 | O=C1C=C2CC3(O)COc4cc(O)ccc4C3=C2C=C1O (stereo not drawn) [BRAZILEIN] | 95.51% | 96.33%
4 | Oc1ccc2c(c1)OC[C@]1(O)Cc3cc(O)c(O)cc3[C@H]21 [BRAZILIN] | 101.4% | 117.2%
5 | CC(=O)[C@H]1CC[C@H]2[C@@H]3CC[C@H]4C[C@H](O)CC[C@]4(C)[C@H]3CC[C@]12C [BREXANOLONE] | 89.68% | 41.5%
6 | CN(Cc1cc(Br)cc(Br)c1N)C1CCCCC1.Cl [BROMHEXINE HYDROCHLORIDE] | 95.98% | 103.1%
7 | CC1(C)CC2C1CC[C@]1(CBr)CCC3C(CC(=O)O)C(=O)O[C@@]32C1 (stereo partly drawn) [BROMO-3-HYDROXY-4-(SUCCIN-2-YL)-CARYOLANE gamma-LACTONE] | 50.1% | 26.83%
8 | CC(C)C[C@H]1C(=O)N2CCC[C@H]2[C@]2(O)O[C@](NC(=O)[C@@H]3C=C4c5cccc6[nH]c(Br)c(c56)C[C@H]4N(C)C3)(C(C)C)C(=O)N12.CS(=O)(=O)O [BROMOCRIPTINE MESYLATE] | 84.69% | 67.37%
9 | CN(C)CCC(c1ccc(Br)cc1)c1ccccn1.O=C(O)/C=C\C(=O)O (stereo not drawn) [BROMPHENIRAMINE MALEATE] | 90.7% | 88.52%
10 | Oc1c(Br)cc(Br)c2cccnc12 [BROXYQUINOLINE] | 75.68% | 57.32%
11 | COc1cc2c(cc1OC)[C@@]13CCN4CC5=CCO[C@H]6CC(=O)N2[C@H]1[C@H]6[C@H]5C[C@H]43 [BRUCINE] | 229.8% | 117.9%
12 | CCCC(=O)Nc1ncnc2c1ncn2[C@@H]1O[C@@H]2COP(=O)(O)O[C@H]2[C@H]1OC(=O)CCC [BUCLADESINE] | 88.95% | 116%
13 | COc1ccc(-c2cc(=O)c3c(O)cc(O[C@H]4O[C@H](CO[C@@H]5O[C@@H](C)[C@H](O)[C@@H](O)[C@H]5O)[C@@H](O)[C@H](O)[C@H]4O)cc3o2)cc1 [BUDDLEOFLAVONOLOSIDE] | 212.4% | 69.14%
14 | CCCC1O[C@@H]2C[C@H]3[C@@H]4CCC5=CC(=O)C=C[C@]5(C)[C@H]4[C@@H](O)C[C@]3(C)[C@]2(C(=O)CO)O1 (stereo partly drawn) [BUDESONIDE] | 73% | 43.76%
15 | CCCCOc1ccc(CC(=O)NO)cc1 [BUFEXAMAC] | 92.18% | 89.04%
16 | CCCCN1CCCCC1C(=O)Nc1c(C)cccc1C.Cl (stereo not drawn) [BUPIVACAINE HYDROCHLORIDE] | 94.2% | 97.15%
17 | CS(=O)(=O)OCCCCOS(C)(=O)=O [BUSULFAN] | 98.16% | 113.7%
18 | CCCCN(CCCC)CCCOC(=O)c1ccc(N)cc1 [BUTACAINE] | 114.4% | 93.87%
19 | CCCCOC(=O)c1ccc(N)cc1 [BUTAMBEN] | 124.9% | 159.2%
20 | CCC[C@H]1CC2=C(C[C@@H](CC)CC3=C1C(=O)OC3=O)C(=O)OC2=O [BYSSOCHLAMIC ACID] | 102.5% | 87.32%
21 | CC(=O)OC[C@@]1(O)C[C@@]23CC[C@@H]4c5ccoc5CC[C@@]4(C)[C@@H]2CC[C@@H]1C3 [CAFESTOL ACETATE] | 89.68% | 108.6%
22 | O=C(/C=C/c1ccc(O)c(O)c1)OCCc1ccccc1 [CAFFEIC ACID PHENETHYL ESTER] | 143.5% | 254%

Row | SMILES | residual activity [1] | residual activity [2]
23 | O=C(O)/C=C/c1ccc(O)c(O)c1 [CAFFEIC ACID] | 94% | 69.6%
24 | Cn1c(=O)c2c(ncn2C)n(C)c1=O [CAFFEINE] | 90.35% | 103.6%
25 | CC[C@@]1(O)C(=O)OCc2c1cc1n(c2=O)Cc2cc3ccccc3nc2-1 [CAMPTOTHECIN] | 107.3% | 74.81%
26 | N=C(N)NOCC[C@H](N)C(=O)O [CANAVANINE] | 91.69% | 101.6%
27 | CCOc1nc2cccc(C(=O)OC(C)OC(=O)OC3CCCCC3)c2n1Cc1ccc(-c2ccccc2-c2nnn[nH]2)cc1 (stereo not drawn) [CANDESARTAN CILEXETIL] | 5.967% | 10.55%
28 | C[C@]12CCC(=O)C=C1C=C[C@@H]1[C@@H]2CC[C@@]2(C)[C@H]1CC[C@@]21CCC(=O)O1 [CANRENONE] | 78.65% | 32.01%
29 | C[C@@]12C(=O)OC(=O)[C@]1(C)[C@H]1CC[C@@H]2O1 [CANTHARIDIN] | 105.7% | 102.5%
30 | C[C@@H]1NC(=O)[C@@H](N)CNC(=O)[C@H](C2CCNC(=N)N2)NC(=O)/C(=C/NC(N)=O)NC(=O)[C@H](CNC(=O)CC(N)CCCN)NC1=O.N=C1NCCC([C@@H]2NC(=O)/C(=C/NC(N)=O)NC(=O)[C@H](CNC(=O)CC(N)CCCN)NC(=O)[C@H](CO)NC(=O)[C@@H](N)CNC2=O)N1.O=S(=O)(O)O.O=S(=O)(O)O (stereo partly drawn) [CAPREOMYCIN SULFATE] (H-[Dap]S[Dap](ξβ3hOrn)[ΔAla(Z-3-ureido)][X1]; lactam 1-C) | 80.84% | 89.76%
31 | CC1=C(/C=C/C(C)=C/C=C/C(C)=C/C=C/C=C(C)/C=C/C=C(C)/C=C/C(=O)[C@]2(C)C[C@@H](O)CC2(C)C)C(C)(C)C[C@H](O)C1 [CAPSANTHIN] | 102.1% | 79.45%
32 | C[C@H](CS)C(=O)N1CCC[C@H]1C(=O)O [CAPTOPRIL] | 105.2% | 167%
33 | COC(=O)C[C@H]1C(C)(C)C(=O)[C@@H]2CC3C4=CC(=O)O[C@@H](c5ccoc5)[C@]4(C)CC[C@@H]3[C@@]1(C)C2=O (stereo partly drawn) [CARAPIN] | 66.49% | 20.92%
34 | C[N+](C)(C)CCOC(N)=O.[Cl-] [CARBACHOL] | 105.7% | 120.9%
35 | COC(=O)N/N=C/c1c[n+]([O-])c2ccccc2[n+]1[O-] [CARBADOX] | 107.6% | 84.43%
36 | NC(=O)N1c2ccccc2C=Cc2ccccc21 [CARBAMAZEPINE] | 99.43% | 121.6%
37 | CC1(C)S[C@@H]2[C@H](NC(=O)C(C(=O)[O-])c3ccccc3)C(=O)N2[C@H]1C(=O)[O-].[Na+].[Na+] (stereo partly drawn) [CARBENICILLIN DISODIUM] | 100.7% | 108.5%
38 | CC1(C)[C@@H](OC(=O)CCC(=O)[O-])CC[C@]2(C)[C@H]3C(=O)C=C4[C@@H]5C[C@@](C)(C(=O)[O-])CC[C@]5(C)CC[C@@]4(C)[C@]3(C)CC[C@@H]12.[Na+].[Na+] [CARBENOXOLONE SODIUM] | 14.47% | 15.44%
39 | CCN(CC)CCOCCOC(=O)C1(c2ccccc2)CCCC1.O=C(O)CC(O)(CC(=O)O)C(=O)O [CARBETAPENTANE CITRATE] | 97.23% | 86.24%
40 | C[C@@](Cc1ccc(O)c(O)c1)(NN)C(=O)O.O [CARBIDOPA] | 113.1% | 134.5%
41 | CCOC(=O)n1ccn(C)c1=S [CARBIMAZOLE] | 101.8% | 114.4%
42 | CN(C)CCOC(c1ccc(Cl)cc1)c1ccccn1.O=C(O)/C=C\C(=O)O (stereo not drawn) [CARBINOXAMINE MALEATE] | 96.23% | 85.11%
43 | CNC(=O)Oc1cccc2c1OC(C)(C)C2 [CARBOFURAN] | 111.1% | 100.9%
44 | CCCC(C)(COC(N)=O)COC(=O)NC(C)C (stereo not drawn) [CARISOPRODOL] | 103.8% | 106%

Source: ChEMBL document CHEMBL3039007, “Structure-based identification of OATP1B1/3 inhibitors” (Mol Pharmacol, 2013)
